Assay results as given in patent US20090131329A1, “Treatment for allograft rejection” (priority 2007, published 2009).

Tests used:
[1] = test system: lung allograft rejection (BN donor into F344 recipient); experiment: Histological evaluation of acute rejection (IWF rejection score) of rat lung allografts on day 7; format: in vivo
Method: Methods. Orthotopic left lung allotransplantation was performed from Brown Norway (donor) to Fisher 344 (recipient) rats. The role of activated neutrophils in the development of allograft rejection is believed to be biphasic. Therefore, specific CXC receptor inhibition was used with antileukinate in two dosing regimens. Recipients were allocated into 4 groups: A (early administration: n=6) received two doses of antileukinate (a hexapeptide), 10.0 mg/kg intramuscularly 24 hours before and immediately after transplantation, B (continuous administration: n=8) animals continuously received antileukinate intraperitoneally (10.0 mg/kg/day) for 7 days after surgery. Experimental groups A or B were compared with their individual control that received saline alone (Cont-A and Cont-B). The progression of rejection was assessed radiographically. Each animal was sacrificed on day 7 for histologic evaluation of allograft rejection based on pathologic rejection grade. Transplant Model. Rat left-lung transplantation was performed in a RT1 (MHC) incompatible donor-recipient combination from a BN donor into a F344 recipient. Complete graft rejection in this severely mismatched combination would be expected histologically and radiographically on day 7 postoperatively. […]

[2] = test system: lung allograft rejection (BN donor into F344 recipient); experiment: Radiographic evaluation (aeration score) of transplanted lungs; format: in vivo, rat; settings: for aeration score (AS) of representative chest radiograph: day 7
Method: Methods. Orthotopic left lung allotransplantation was performed from Brown Norway (donor) to Fisher 344 (recipient) rats. The role of activated neutrophils in the development of allograft rejection is believed to be biphasic. Therefore, specific CXC receptor inhibition was used with antileukinate in two dosing regimens. Recipients were allocated into 4 groups: A (early administration: n=6) received two doses of antileukinate (a hexapeptide), 10.0 mg/kg intramuscularly 24 hours before and immediately after transplantation, B (continuous administration: n=8) animals continuously received antileukinate intraperitoneally (10.0 mg/kg/day) for 7 days after surgery. Experimental groups A or B were compared with their individual control that received saline alone (Cont-A and Cont-B). The progression of rejection was assessed radiographically. Each animal was sacrificed on day 7 for histologic evaluation of allograft rejection based on pathologic rejection grade. Transplant Model. Rat left-lung transplantation was performed in a RT1 (MHC) incompatible donor-recipient combination from a BN donor into a F344 recipient. Complete graft rejection in this severely mismatched combination would be expected histologically and radiographically on day 7 postoperatively. The orthotopic left-lung transplantation procedure used in this study was a modification of the ‘cuff’ technique for vascular anastomosis (Mizuta et al., 1989). In brief, the lung grafts were flushed and immersed in ice-cold normal saline solution before implantation. Cuffs with internal diameters of 1.65 mm and 2.20 mm for pulmonary arterial and venous anastomosis, respectively, were used. The left main bronchus was anastomosed using 8-0 prolene running sutures. In rats, radiographic assessment of a left-lung transplantation graft can be obscured by the right lung. Therefore, a postcaval lobectomy on the recipient's right lung was performed immediately after implantation so as to facilitate radiographic assessment of the left-lung allograft. […] Experimental groups. Recipient animals were divided into 4 groups (Table 1). Animals from group A (early administration; n=6) received 0.5 ml of phosphate-buffered saline (PBS) solution containing a 10.0 mg/kg concentration of antileukinate intramuscularly 24 hours before (day −1) and immediately after transplantation (day 0). The control group against group A (Cont-A) received 0.5 ml of PBS in a similar fashion. Allograft recipients from group B (continuous administration; n=8) were given continuous antileukinate administration intraperitoneally for 7 days after transplantation, starting immediately after surgery using a micro-osmotic pump which was implanted into the peritoneal cavity two hours before lung transplantation. Antileukinate was released into the recipient's peritoneal cavity continuously at a dose of 10.0 mg/kg/day from days 0 to 7. Animals from Cont-B served as the control group against group B receiving the same amount of PBS without antileukinate in the same manner. Implantation of micro-osmotic pumps for groups B and Cont-B. Micro-osmotic pumps (model 2001; Alzet Corp., distributed by Charles River Laboratories, Sulzfeld, Germany) were used for intraperitoneal delivery of antileukinate. […] Transplanted lungs were serially assessed every other day by chest roentgenogram under spontaneous ventilation with halothane for sedation. […] Briefly, it was evaluated and graded 0 for an opaque lung, and up to 6 for a normal-appearing lung. […]

[3] = test system: neutrophils in the lung allograft; experiment: Number of neutrophils infiltrated into lung grafts; format: in vivo, rat; settings: day 7
Method: Transplant Model. Rat left-lung transplantation was performed in a RT1 (MHC) incompatible donor-recipient combination from a BN donor into a F344 recipient. Complete graft rejection in this severely mismatched combination would be expected histologically and radiographically on day 7 postoperatively. The orthotopic left-lung transplantation procedure used in this study was a modification of the ‘cuff’ technique for vascular anastomosis (Mizuta et al., 1989). In brief, the lung grafts were flushed and immersed in ice-cold normal saline solution before implantation. Cuffs with internal diameters of 1.65 mm and 2.20 mm for pulmonary arterial and venous anastomosis, respectively, were used. […] Acute rejection was evaluated histologically and assigned a rejection score (RS) based on the clinical international working formulation: IWF grade 0, no significant abnormality; grade 1, scattered infrequent perivascular mononuclear infiltration; grade 2, frequent perivascular mononuclear infiltration; grade 3, extension of mononuclear infiltration into alveolar septum/space; and grade 4, diffuse perivascular, interstitial, and air space infiltration of mononuclear cells. The number of neutrophils was counted in a blinded fashion in 10 random fields per slide at ×1000 magnification. […] The data were expressed as mean±standard deviation. […]

[4] = test system: lung allograft (BN donor into F344 recipient); experiment: Macroscopic findings of the allograft on day 7; format: in vivo, rat; settings: controls: complete consolidation without aeration
Method: Transplant Model. Rat left-lung transplantation was performed in a RT1 (MHC) incompatible donor-recipient combination from a BN donor into a F344 recipient. Complete graft rejection in this severely mismatched combination would be expected histologically and radiographically on day 7 postoperatively. The orthotopic left-lung transplantation procedure used in this study was a modification of the ‘cuff’ technique for vascular anastomosis (Mizuta et al., 1989). In brief, the lung grafts were flushed and immersed in ice-cold normal saline solution before implantation. Cuffs with internal diameters of 1.65 mm and 2.20 mm for pulmonary arterial and venous anastomosis, respectively, were used. The left main bronchus was anastomosed using 8-0 prolene running sutures. In rats, radiographic assessment of a left-lung transplantation graft can be obscured by the right lung. Therefore, a postcaval lobectomy on the recipient's right lung was performed immediately after implantation so as to facilitate radiographic assessment of the left-lung allograft. […] Experimental groups. Recipient animals were divided into 4 groups (Table 1). Animals from group A (early administration; n=6) received 0.5 ml of phosphate-buffered saline (PBS) solution containing a 10.0 mg/kg concentration of antileukinate intramuscularly 24 hours before (day −1) and immediately after transplantation (day 0). […]

[5] = group B (continuous administration)

## Ac-RRWWCR-NH2 [antileukinate]
[1]; group B (continuous administration), day 7, representative histology
  rejection score (RS) of representative allograft: 1
[1]; group B: continuous ip 10.0 mg/kg/day days 0 to 7, n=8, day 7, Cont-B 3.3±0.5, p=0.018, scale 0-4
  histologic rejection score (IWF), mean±standard deviation: 2.1±1.0
[2]; group A (early administration) versus Cont-A
  aeration score versus control at each time point: No significant differences
[2]; group A (early administration)
  aeration score (AS) of representative chest radiograph: 6
[2]; group B (continuous administration) versus Cont-B
  aeration score versus control at each time point: No significant differences
[2]; [5]
  aeration score (AS) of representative chest radiograph: 5
[2]; group B: continuous ip 10.0 mg/kg/day, Cont-B 1.6±1.3, p=0.16, score 0=opaque to 6=normal-appearing lung
  aeration score (AS) on day 7, mean±standard deviation: 2.6±2.1
[3]; group A: 10.0 mg/kg im day -1 and day 0, Cont-A 55.7±10.0, p=0.093
  neutrophil count in the graft: 34.8±28.7 /10HPFs
[3]; group B: continuous ip 10.0 mg/kg/day, Cont-B 47.9±18.4, p=0.046
  neutrophil count in the graft: 32.1±9.6 /10 HPFs
[4]; group A (early administration)
  macroscopic finding of the allograft: macroscopically adequate ventilation
[4]; [5]
  macroscopic finding of the allograft: macroscopically adequate ventilation
